Experimental data published in patent US10478431B2, “Methods for treating a cytomegalovirus infection” (priority 2014, dated 2019).
Entries after “also recorded” stand apart in the source; their conditions may differ. Counter-ions that a name gives are not always drawn.

Columns and labels:
[1] = tested on: ARPE-19 cells stably transduced with LM2ig; assay: Viability of ARPE-19 cells stably transduced with LM2ig; format: cell-based; conditions: FIG. 1, FIG. 2
Description: MRCS fibroblasts and life-extended human foreskin fibroblasts (HFFs) (Bresnahan and Shenk, 2000) were maintained in Dulbecco's Modified Eagle's Medium (DMEM) supplemented with 10% fetal bovine serum (FBS) and 50 U/ml penicillin-streptomycin at 37° C. and 5% CO2 in a humidified incubator. ARPE-19 cells were maintained in a 1:1 mixture of DMEM/F-12 (Mediatech Inc.) with 10% FBS (HyClone) and 50 U/ml Penicillin-Streptomycin (Mediatech Inc.). Cells were treated with a final concentration of 1 mM valproic acid (VPA) (Calbiochem™), resuspended in dimethylsulfoxide, for approximately 24 hours before imaging. Cells were treated with a final concentration of 400 nM TSA (Sigma-Aldrich) resuspended in dimethylsulfoxide, for 20-24 hours, a final concentration of 10 ng/mL TNF-α (Sigma-Aldrich) resuspended in phosphate-buffered saline (PBS), or a final concentration of 1 mM VPA (Calbiochem) for approximately 24 hours before imaging.
Standard lentiviral cloning was used to create minimal major immediate early (MIE) circuits (Dull et al., 1998). The minimal MIEP-IE2-GFP and MIEP-GFP circuits are driven by a full-length ˜2.5 kb MIE promoter-enhancer (MIEP) that spans the sequence from the MIEP modulator at the 5′ edge to the junction of immediate early (IE) exons 1 and 2. The MIEP was polymerase chain reaction (PCR)-cloned from AD169 into pLEIGW in place of the EF1a promoter. This full-length MIEP drives an IE2-IRES-GFP or mCherry-IRES-GFP cassette. IE2 was cloned from pRSV-IE86 (a gift from Jay Nelson). ARPE-19 cells were infected and fluorescence-activated cell sorter (FACS) sorted for green fluorescent protein (GFP) fluorescence to create stably expressing cell lines. Cells were treated with Trichostatin-A (TSA) for 17 hours, and GFP expression was quantified by flow cytometry. Live cells were gated by forward-versus-side scattering on a FacsCalibur™ cytometer (BD Biosciences) and mean fluorescence intensity recorded. At least 20,000 live cells were recorded for each experiment and data was analyzed in FlowJo™ (Treestar Inc.).

[2] = tested on: CMV AD169 (a laboratory strain of HCMV); assay: Human CMV viral replication kinetics in MRCS cells (TCID50, PFU/ml); format: cell-based, human CMV (hCMV)
Description: MRCS cells were seeded into cell culture plates and maintained for 1 to 2 days until cells reached confluency at ˜5×10^4 cells per well. The monolayers were then infected with recombinant virus human CMV IE2-YFP or CMV-GFP as a control. HCMV IE2-YFP was used as the control virus for replication kinetics with the Δcrs IE2-YFP recombinant virus. Cells were infected at a multiplicity of infection (MOI) of 1, 0.2, or 0.1, as indicated. Inoculum was prepared using virus stocks diluted in culture media, and adsorbed onto cells in a volume of 200 μl for one hour at 37° C. in a humidified CO2 incubator. Inoculum was then removed and replaced with one mL of fresh media. The amount of infectious virus to prepare inoculum was based on plaque assay titrations (Bolovan-Fritts and Wiedeman, 2001) of virus stocks and is shown as time point 0 in each figure. For each time point three separate sample wells were collected. Infectious cell-free virus was collected by harvesting medium from infected culture wells at indicated time points and stored at −80° C. To measure replication, samples were thawed and prepared as a 10-fold serial dilution series in culture media, then analyzed by TCID50. The results were then converted to plaque-forming units per ml (PFU/ml). Error ranges were calculated using standard deviation.

[3] = tested on: latent CMV in N-Tera2 cells; assay: N-Tera2 latency assay (reactivation of latent CMV); format: cell-based, human CMV (hCMV); conditions: FIG. 4 lower panel, trihydrochloride hydrate
Description: Reactivation of latent CMV in N-Tera2 cells was conducted as previously described in (Meier, 2001).

IE2 = assay: Quantitative Western blot of IE2; format: cell-based, human CMV (hCMV); conditions: with increasing Hoechst 33258 exposure
Description: Cell monolayers were rinsed in PBS buffer, and cells from each well were scraped into 50 μl A of RIPA buffer and stored at −80° C. For analysis, samples were thawed and quantitated for total protein content using a modified Lowry assay (BioRad DC protein assay kit). Equivalent amounts of total protein (10 μg) were added to appropriate volumes of 4× sample loading buffer (50 mM Tris-HCl pH 6.8, 2% sodium docecyl sulfate (SDS), 10% glycerol, 1% beta-mercaptoethanol, 12.5 mM EDTA, and 0.02% bromophenol blue) and heated at 95° C. for 5 minutes. Protein samples were loaded and separated on precast SDS polyacrylamide gel electrophoresis (PAGE) 10% or 7.5% bisacrylamide gels (BioRad). Protein transfer and blot preparation were handled as previously described (Bolovan-Fritts et al., 2004). For detection of protein bands, primary mouse monoclonal antibody against a shared epitope present in IE1 and IE2 at 1:100 (MAB810, Millipore). Beta tubulin was used as a normalization marker, and detected by a primary rabbit anti-beta tubulin antibody (926-42211, LiCor) used at a dilution of 1:2000. The secondary antibody for IE2 detection used was a donkey anti-mouse conjugated to IR dye 800CW (926-32212, LiCor) at a dilution of 1:20,000. […] Blots were scanned using a LiCor Odyssey Infrared Imaging system and software analysis for quantitation.

[4] = tested on: IE2 negative feedback (LM2ig "low" cells); assay: LM2ig "low" drug screen (4 day induction, high throughput flow cytometry); format: cell-based, human CMV (hCMV); conditions: induction period of 4 days, FIG. 9
Description: LM2ig “low” cells (˜0% GFP positive before induction) were treated with agents in duplicate for an induction period of 4 days. During this induction period, the cell culture medium was not changed; images were taken every day for 4 days. On the final day, high throughput flow cytometry was carried out on FACS IntelliCyt. Agents tested were: Hoechst 33258, Hoechst 33342, VPA, TSA, TNF-α, hexamethylene bisacetamide (HMBA), phorbol myristate acetate (PMA), neotroposin, distamycin, DAPI, gemcitabine, prednisolone, suberanilohydroxamic acid (SAHA), (2E)-N-hydroxy-3-[4-({[2-(2-methyl-1H-indol-3-yl)ethyl]amino}methyl)phenyl]acrylamide (panobinostat), thapsigargin, JQ1, prostratin, dimizane acetate, pentamidine, or bendamustine.

[5] = tested on: DNA CRS target with purified IE2 protein; assay: Gel shift assay (EMSA) of IE2-CRS; format: binding; conditions: various amounts of BB33258; FIG. 20
Description: IE2-MBP expressed in BL21 cells was purified using amylose column, and EMSA was performed for IE2-crs interaction as described in Macias, M. P., Stinski, M. F., 1993. PNAS. 90, 707-711.

CN1CCN(c2ccc3[nH]c(-c4ccc5[nH]c(-c6ccc(O)cc6)nc5c4)nc3c2)CC1 [Hoechst 33258, 2′-(4-hydroxyphenyl)-5-(4-methyl-1-piperazinyl)-2,5′-bi-1H-benzimidazole trihydrochloride hydrate]
cell viability / cytotoxicity [1]: reduced cell viability | reduction of hCMV replication ([2]; FIG. 10): more than 100 fold | HCMV viral replication ([2]; MRCS cells, CMV AD169, 5, 10 or 20 μM Hoechst 33258, data in PFU/ml, FIG. 3, trihydrochloride hydrate): inhibited HCMV viral replication; also recorded: significantly reduced HCMV replication | reactivation of latent CMV [3]: reactivated latent CMV; also recorded: reactivation of latent HCMV | IE2 levels (quantitative Western blot) (IE2): increase | breaking of the IE2 negative feedback (geometric mean of GFP) [4]: specifically break the IE2 negative feedback | binding to the CRS sequence (EMSA) [5]: binding
